# Experimental data from patent publication US20240067655A1 (NEURON23, INC., priority 2020, published 2024).
# Target: T1, wt human LRRK2, catalytic site (Homo sapiens, UniProt Q5S007)
# T1 construct: wt human LRRK2, catalytic site; purchased ThermoFisher/USA
# Experiment: TR-FRET LanthaScreen Tb Kinase Activity Assay (Example 71)
# Assay type: biochemical
# Conditions: compounds of Table 4, 38 uM ATP, method names only wt human LRRK2, read-out: IC50, Inhibitory Activity Toward LRRK2 (Wt) and LRRK2 (G2019)
# Protocol: The compounds in Table 4 were tested for their inhibitory effect on LRRK2 kinases according to the following procedures.
# The basic protocol for TR-FRET LanthaScreen Tb Kinase Activity Assay inhibitor studies were performed as follows. LanthaScreen Kinase Activity Assays (ThermoFisher/USA) to evaluate inhibitors were performed by addition of 100 nl of test compound in corresponding DMSO dilutions/5 μl of kinase/fluorescein-ERM(LRRKtide) peptide mixture, 5 μl of ATP into 384 well small volume plates. After incubation for 120 minutes at room temperature, the detection reagents containing Tb-anti-pLRRKtide antibody were added to monitor phosphrylation level of peptide. Then, after 60 min minutes incubation at room temperature plates were read in Envision. Data analysis of emission ratios was according to LanthaScreen Tb Kinase Activity Assay protocol.
# Kinase and assay components were adjusted to final concentrations according to the kit protocol. For LRRK2: 2 nM wt human LRRK2, catalytic site, catalytic site (ThermoFisher/USA), 400 nM peptide, 38 uM ATP in 1× Kinase Buffer A.
# Basic protocol for TR-FRET LanthaScreen Tb Kinase Activity Assay inhibitor studies involved two steps:
# Enzymatic step: Addition of 100 nl of test compound in corresponding DMSO dilutions, 5 μl of kinase/substrate mixture, 5 μl of ATP into 384 well small volume plates. Incubation for 120 minutes at room temperature.
# Detection step: Addition of 10 μl EDTA & antibody, read plate after 60 minutes. Data analysis of emission ratios according to KinEASE assay protocol.
# T1 sequence (Q5S007 1879-2138 limits assumed): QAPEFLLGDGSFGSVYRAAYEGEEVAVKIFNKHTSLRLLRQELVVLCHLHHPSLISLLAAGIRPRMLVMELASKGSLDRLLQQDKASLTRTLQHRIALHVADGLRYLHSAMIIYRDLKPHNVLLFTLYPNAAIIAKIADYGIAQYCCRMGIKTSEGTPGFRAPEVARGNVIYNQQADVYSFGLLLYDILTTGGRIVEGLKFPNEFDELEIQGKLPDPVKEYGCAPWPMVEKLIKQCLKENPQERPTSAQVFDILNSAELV
row,SMILES,IC50 [nM]
1,"Clc1cccc(Cl)c1C1=Nc2cn[nH]c2-c2cnn3c2N1CCC3 [Compound 342, 9-(2,6-dichlorophenyl)-3,6,7,8-tetrahydro-2,3,5,5a,8a,10-hexaazabenzo[cd]cyclopenta[h]azulene]",10 to 100
2,"Fc1ccc(C2CC2)c(F)c1C1=Nc2cn[nH]c2-c2cnn3c2N1CC3 [Compound 399, 3-(3-cyclopropyl-2,6-difluorophenyl)-2,7-dihydro-1H-2a,4,6,7,9,9a-hexaazadicyclopenta[cd,f]azulene]",< 10
3,"Cc1cccc(F)c1C1=Nc2cn[nH]c2-c2cnn3c2N1CCC3 [Compound 340, 9-(2-fluoro-6-methylphenyl)-3,6,7,8-tetrahydro-2,3,5,5a,8a,10 hexaazabenzo[cd]cyclopenta[h]azulene]",< 10
4,"Fc1ccc(Cl)c(F)c1C1=Nc2cn[nH]c2-c2cnn3c2N1CCC3 [Compound 368, 8-(3-chloro-2,6-difluoro-phenyl)-3,4,7,9,13,14-hexazatetracyclo[7.6.1.02,6.013,16]hexadeca-1(16),2(6),4,7,14-pentaene]",< 10
5,"Fc1cccc(Cl)c1C1=Nc2cn[nH]c2-c2cnn3c2N1CC3 [Compound 383, 8-(2-chloro-6-fluoro-phenyl)-3,4,7,9,12,13-hexazatetracyclo[7.5.1.02,6.012,15]pentadec-1(15),2(6),4,7,13-pentaen]",< 10
6,"Fc1cc(Cl)cc(F)c1C1Nc2cn[nH]c2-c2cnn3c2N1CCC3 (centres unmarked) [Compound 402, 9-(4-chloro-2,6-difluorophenyl)-3,6,7,8,9,10-hexahydro-2,3,5,5a,8a,10-hexaazabenzo[cd]cyclopenta[h]azulene]",100 to 1000
7,"Cc1cccc(C)c1C1=Nc2cn[nH]c2-c2cnn3c2N1CCC3 [Compound 379, 8-(2,6-dimethylphenyl)-3,4,7,9,13,14-hexazatetracyclo[7.6.1.02,6.013,16]hexadeca-1(16),2(6),4,7,14-pentaene]",100 to 1000
8,"Fc1cccc(C2CC2)c1C1=Nc2cn[nH]c2-c2cnn3c2N1CCC3 [Compound 356, 9-(2-cyclopropyl-6-fluorophenyl)-3,6,7,8-tetrahydro-2,3,5,5a,8a,10-hexaazabenzo[cd]cyclopenta[h]azulene]",10 to 100
9,"Fc1ccc(Br)c(F)c1C1=Nc2cn[nH]c2-c2cnn3c2N1CCC3 [Compound 353, 9-(3-bromo-2,6-difluorophenyl)-3,6,7,8-tetrahydro-2,3,5,5a,8a,10-hexaazabenzo[cd]cyclopenta[h]azulene]",< 10
10,"Fc1ccc(Cl)c(F)c1C1=Nc2cn[nH]c2-c2cnn3c2N1CC3 [Compound 390, 3-(3-chloro-2,6-difluorophenyl)-2,7-dihydro-1H-2a,4,6,7,9,9a-hexaazadicyclopenta[cd,f]azulene]",< 10
11,"Fc1cccnc1C1=Nc2cn[nH]c2-c2cnn3c2N1CCCC3 [Compound 365, 10-(3-fluoropyridin-2-yl)-6,7,8,9-tetrahydro-3H-2,3,5,5a,9a,11-hexaazadicyclopenta[b,kl]heptalene]",> 1000
12,"Fc1ccc(Br)c(Cl)c1C1=Nc2cn[nH]c2-c2cnn3c2N1CCC3 [Compound 355, 8-(3-bromo-2-chloro-6-fluoro-phenyl)-3,4,7,9,13,14-hexazatetracyclo-[7.6.1.02,6.013,16]hexadeca-1(16),2(6),4,7,14-pentaene]",< 10
13,"Fc1cncc(F)c1C1=Nc2cn[nH]c2-c2cnn3c2N1CCC3 [Compound 376, 8-(3,5-difluoro-4-pyridyl)-3,4,7,9,13,14-hexazatetracyclo[7.6.1.02,6.013,16]hexadeca-1(16),2(6),4,7,14-pentaene]",10 to 100
14,"Cc1nn2c3c1-c1[nH]ncc1N=C(c1c(F)cccc1F)N3CCC2 [Compound 366, 9-(2,6-difluorophenyl)-4-methyl-3,6,7,8-tetrahydro-2,3,5,5a,8a,10-hexaazabenzo[cd]cyclopenta[h]azulene]",100 to 1000
15,"Fc1cccc(Br)c1C1=Nc2cn[nH]c2-c2cnn3c2N1CC3 [Compound 393, 3-(2-bromo-6-fluorophenyl)-2,7-dihydro-1H-2a,4,6,7,9,9a-hexaazadicyclopenta[cd,f]azulene]",10 to 100
16,"Cc1ccc(F)c(C2=Nc3c(C)n[nH]c3-c3cnn4c3N2CCC4)c1F [Compound 396, 9-(2,6-difluoro-3-methylphenyl)-1-methyl-3,6,7,8-tetrahydro-2,3,5,5a,8a,10-hexaazabenzo[cd]cyclopenta[h]azulene]",< 10
17,"Cc1n[nH]c2c1N=C(c1c(F)cccc1F)N1CCn3ncc-2c31 [Compound 372, 8-(2,6-difluorophenyl)-5-methyl-3,4,7,9,12,13-hexazatetrahydro[7.5.1.02,6.012,15]pentadeca-1(15),2,5,7,13-pentaene]",< 10

# Continued, values first:
row,IC50 [nM],SMILES
1,10 to 100,"Fc1cc(OC(F)F)cc(F)c1C1=Nc2cn[nH]c2-c2cc(C(F)(F)F)cc3[nH]cc1c23 [Compound 384, 3-(4-(difluoromethoxy)-2,6-difluorophenyl)-9-(trifluoromethyl)-1,7-dihydropyrazolo[3′,4′:6,7]azepino[3,4,5-cd]indole]"
2,< 10,"Cc1n[nH]c2c1N=C(c1c(F)cccc1F)c1c[nH]c3cc(Cl)cc-2c13 [Compound 400, 9-chloro-3-(2,6-difluorophenyl)-5-methyl-1,7-dihydropyrazolo[3′,4′:6,7]azepino[3,4,5-cd]indole]"
3,< 10,"N#Cc1ccc(F)c(C2=Nc3cn[nH]c3-c3cnn4c3N2CC4)c1F [Compound 394, 3-(2,7-dihydro-1H-2a,4,6,7,9,9a-hexaazadicyclopenta[cd,f]azulen-3-yl)-2,4-difluorobenzonitrile]"
4,10 to 100,"Fc1ccc(F)c(C2=Nc3cn[nH]c3-c3cnn4c3N2CCC4)c1F [Compound 367, 8-(2,3,6-trifluorophenyl)-3,4,7,9,13,14-hexazatetracyclo[7.6.1.02,6.013,16]hexadeca-1(16),2(6),4,7,14-pentaene]"
5,< 10,"OCc1cc(F)c(C2=Nc3cn[nH]c3-c3cc(C(F)(F)F)cc4[nH]cc2c34)c(F)c1 [Compound 406, (3,5-difluoro-4-(9-(trifluoromethyl)-1,7-dihydropyrazolo[3′,4′:6,7]azepino[3,4,5-cd]indol-3-yl)phenyl)methanol]"
6,10 to 100,"C[C@@H]1CCN2C(c3c(F)cccc3F)=Nc3cn[nH]c3-c3cnn1c32 (single isomer, unassigned) [Compound 346]"
7,< 10,"OCc1ccc(F)c(C2=Nc3cn[nH]c3-c3cc(C(F)(F)F)cc4[nH]cc2c34)c1F [Compound 407, (2,4-difluoro-3-(9-(trifluoromethyl)-1,7-dihydropyrazolo[3′,4′:6,7]azepino[3,4,5-cd]indol-3-yl)phenyl)methanol]"
8,< 10,"Cc1ccc(F)c(C2=Nc3cn[nH]c3-c3cnn4c3N2CCC4)c1F [Compound 354, 9-(2,6-difluoro-3-methylphenyl)-3,6,7,8-tetrahydro-2,3,5,5a,8a,10 Hexaazabenzo[cd]cyclopenta[h]azulene]"
9,10 to 100,"C[C@H]1CN2C(c3c(F)cccc3F)=Nc3cn[nH]c3-c3cnn(c32)C1 (single isomer, unassigned) [Compound 350]"
10,< 10,"Fc1cc(F)c(C2=Nc3cn[nH]c3-c3cnn4c3N2CC4)c(F)c1 [Compound 387, 3-(2,4,6-trifluorophenyl)-2,7-dihydro-1H-2a,4,6,7,9,9a-hexaazadicyclopenta[cd,f]azulene]"
11,< 10,"Cc1cc(F)c(C2=Nc3cn[nH]c3-c3cnn4c3N2CCC4)c(F)c1 [Compound 343, 9-(2,6-difluoro-4-methylphenyl)-3,6,7,8-tetrahydro-2,3,5,5a,8a,10 hexaazabenzo[cd]cyclopenta[h]azulene]"
12,10 to 100,"Fc1cccc(C(F)(F)F)c1C1=Nc2cn[nH]c2-c2cnn3c2N1CCC3 [Compound 380, 8-[2-fluoro-6-(trifluoromethyl)phenyl]-3,4,7,9,13,14-hexazatetracyclo[7.6.1.02,6.013,16]hexadeca-1(16),2(6),4,7,14-pentaene]"
13,< 10,"N#Cc1ccc(F)c(C2=Nc3cn[nH]c3-c3cc(C(F)(F)F)cc4[nH]cc2c34)c1F [Compound 405, 2,4-difluoro-3-(9-(trifluoromethyl)-1,7-dihydropyrazolo[3′,4′:6,7]azepino[3,4,5-cd]indol-3-yl)benzonitrile]"
14,10 to 100,N#Cc1cc(F)c(C2=Nc3cn[nH]c3-c3cnn4c3N2CCC4)c(F)c1 [Compound 358]
15,< 10,Cc1n[nH]c2c1N=C(c1c(F)cc(OC(F)F)cc1F)N1CCn3ncc-2c31 [Compound 398]
16,10 to 100,"CC1CCn2ncc3c2N1C(c1c(F)cccc1F)=Nc1cn[nH]c1-3 (centres unmarked) [Compound 351, 9-(2,6-difluorophenyl)-8-methyl-3,6,7,8-tetrahydro-2,3,5,5a,8a,10-hexaazabenzo[cd]cyclopenta[h]azulene]"
17,10 to 100,COc1cc(F)c(C2=Nc3cn[nH]c3-c3cc(C(F)(F)F)cc4[nH]cc2c34)c(F)c1 [Compound 408]
18,10 to 100,"Fc1cc(Cl)cc(F)c1C1=Nc2cn[nH]c2-c2cnn3c2N1CCC3 [Compound 385, 9-(4-chloro-2,6-difluorophenyl)-3,6,7,8-tetrahydro-2,3,5,5a,8a,10-hexaazabenzo[cd]cyclopenta[h]azulene]"
